The values that follow come from patent publication US20040110821A1, “GAL3 receptor antagonists for the treatment of affective disorders” (priority 2002, published 2004).

The target of the assay is T1, human 5HT1F receptor (Homo sapiens, UniProt P30939).
T1 construct: expressed in transfected cells
The experiment in a line: Radioligand binding at human 5HT1F receptor. The following applies: read-out: h5HT1F Ki. As for the experimental part:
Human 5HT1B, 5HT1D, 5HT1E, 5HT1F, and 5HT7 ReceDtors: The cell lysates of LM(tk-) clonal cell line stably transfected with the genes encoding each of these 5HT receptor-subtypes were prepared as described above. Cell membranes were suspended in 50 mM Tris-HCl buffer (pH 7.4 at 37° C.) containing 10 mM MgCl2, 0.2 mM EDTA, 10 µM pargyline, and 0.1% ascorbate. […] Nonspecific binding was determined in the presence of 10 μM serotonin. The bound radioligand was separated by filtration through GF/B filters using a cell harvester.
Binding data were analyzed using nonlinear regression and statistical techniques available in the GraphPAD Prism package (San Diego, Calif.). Enzymatic assay data were derived from a standard curve of reference compound data.

T1 sequence (P30939 whole entry): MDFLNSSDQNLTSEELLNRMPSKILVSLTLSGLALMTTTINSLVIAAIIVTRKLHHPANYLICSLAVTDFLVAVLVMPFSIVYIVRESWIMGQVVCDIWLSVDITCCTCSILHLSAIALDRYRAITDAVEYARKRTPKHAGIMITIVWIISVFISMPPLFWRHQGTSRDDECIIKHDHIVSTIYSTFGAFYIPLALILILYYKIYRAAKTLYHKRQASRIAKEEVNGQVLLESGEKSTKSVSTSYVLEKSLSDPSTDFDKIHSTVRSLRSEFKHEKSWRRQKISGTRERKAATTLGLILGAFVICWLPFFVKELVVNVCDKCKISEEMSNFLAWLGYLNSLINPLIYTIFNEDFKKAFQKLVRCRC

As to `O=C1C(=Nc2cccc(C(F)(F)F)c2)c2ccccc2N1c1ccccc1` [Example 92, 1-PHENYL-3-[[3-(TRIFLUOROMETHYL)PHENYL]IMINO]-1,3-DIHYDRO-2H-INDOL-2-ONE], the inhibitory constant (Ki) turned out to be 5.29 µM.
